# Test results: PubChem BioAssay AID1902 (Broad Institute, 2009)
# pEC50: −log10 of the molar value. Values joined by “and” are separate entries in the source; they are usually repeats but may differ in a detail not shown here. Equal values may be shown once. Active and inactive are the calls of the source.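 The calls were made as follows: active = EC50 no more than a set limit of log units above the highest dose; inactive = the rest.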
# Target: S. pyogenes SKKanGAS, kanamycin survival, BacTiterGlo, 6 h
# Test: S. pyogenes SKKanGAS kanamycin growth inhibitors – SKKanGAS strain, luminescence, dose confirmation, streptokinase promoter inhibitor project, dose response (AID 1902);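 also: lower survival reflects blocked streptokinase promoter driving kanamycin resistance gene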
SMILES,pEC50,EC50
CSc1c(SCc2ccccc2)cnn(Cc2ccccc2)c1=O,5.40,–
COc1ccc2c(C)nc(Nc3nc(-c4ccccc4)cc(=O)[nH]3)nc2c1,5.56,–
O=C(NNC1=Nc2cccc3cccc1c23)c1ccc(Br)cc1,6.66,–
Cc1ccc(C(C)C)c(OCc2ccc(C(=O)N/N=C/c3ccc(O)cc3O)cc2)c1,5.90,–
CC(C)NC(=O)NC(=O)CSc1nnc(COc2ccccc2F)n1C(C)C1CC2CCC1C2 (centres undefined),5.18,–
COc1ccc(Cc2n[nH]c(=S)n2NC(=O)Nc2ccc(Cl)c(Cl)c2)cc1,5.39,–
O=C(NC12CC3CC(CC(C3)C1)C2)c1ccc([N+](=O)[O-])o1,5.70,–
O=C(Nc1nc2ccccc2n1Cc1ccccc1)c1ccco1,5.54,–
CN(Cc1ccc(OC(F)F)cc1)Cc1nc2c(Br)cc(Br)cc2c(=O)[nH]1,5.53,–
Cn1cc(C(=O)c2ccc(Cl)cc2Cl)cc1C(=O)N/N=C(\N)COc1ccc(Cl)cc1Cl,5.76,–
Cc1ccsc1C1C=C(c2cccc(Br)c2)Nc2ncnn21 (centres undefined),4.85,–
CCc1ccc(OCC(=O)NNC(=S)NC(=O)C2CCCCC2)c(Br)c1,> 7.22,–
FC(F)(F)c1nc(N2CCN(c3ccccc3)CC2)nc2c1CCCCC2,5.56,–
CCN(CC(=O)NCC1CCCO1)S(=O)(=O)c1ccc(Cl)cc1 (centres undefined),–,> 15 µM (inactive)
Cc1nc(N)sc1N=Nc1ccc(F)cc1,5.67,–
CC(C)(C)NC(=O)C1CC2CCCCC2CN1 (centres undefined),–,> 15 µM (inactive)
O=C(N/N=C/c1cc(Br)cc(Br)c1O)c1cccc(S(=O)(=O)N2CCOCC2)c1,5.93,–
Cc1onc(-c2ccccc2)c1C(=O)NC(=S)NNC(=O)c1ccc(O)cc1O,5.57,–
Cc1conc1NC(c1cccs1)c1ccc2cccnc2c1O (centres undefined),5.91,–
Cc1cc(C)c(-c2cc(NC(=O)COC(=O)c3ccc(CO)cc3)n(-c3ccccc3)n2)cc1C,5.08,–
CSc1n[nH]c2nc3c(c(=O)n12)C1(CCCCC1)Cc1ccccc1-3,4.98,–
CCOC(=O)c1cnn(-c2nc(-c3cccc(F)c3)cs2)c1C(F)(F)F,4.91,–

SMILES,pEC50,EC50
COc1ccc(-n2c(=S)[nH]c3cc(C(=O)Nc4ccc(C)c(F)c4)ccc3c2=O)c(OC)c1,5.55,–
Cn1ncc2c(Nc3ccc(Cl)c(Cl)c3)ncnc21,5.32,–
CCN(CC)c1nc(Nc2ccc([N+](=O)[O-])cc2)nc(N(CC)CC)n1,5.50,–
CCN1CCN(C(c2ccc(C(F)(F)F)cc2)c2ccc3cccnc3c2O)CC1 (centres undefined),5.74,–
Cc1ccc(S(=O)(=O)/N=C2\C=C(Nc3cccc(C(=O)O)c3)C(=O)c3ccccc32)cc1,5.61,–
Cc1nnc(SCC2=C(C(=O)O)N3C(=O)C(NC(=O)Cn4nc(C(F)F)c(Cl)c4C)C3SC2)s1 (centres undefined),> 7.22,–
Cc1sc2ncnc(N3CCC(C(=O)Nc4ccc(Cl)cc4Cl)CC3)c2c1C,4.95,–
Cc1ccc2ccc(C(Nc3ccccn3)c3ccccc3)c(O)c2n1 (centres undefined),6.15,–
CCN(CC)c1ccc(-c2nn3c(-c4ccccc4OC)nnc3s2)cc1,5.21,–
COC(=O)c1nc(NC(=S)NC(=O)c2cccs2)sc1C,4.90,–
Cc1cc(C)n(C(=O)/C(C#N)=N/Nc2cc(Cl)cc(Cl)c2)n1,5.75,–
CCc1sc(N(C(=O)Cc2ccccc2)c2cccc(F)c2)nc1-c1ccc(C)cc1,5.75,–
Cc1cccc(Nc2nnc(-c3ccc(N4CCOCC4)c([N+](=O)[O-])c3)c3ccccc23)c1,5.34,–
c1ccc(-c2onc(-c3ccco3)c2-c2ccc3[nH]ccc3c2)cc1,5.38,–
CC(C)CC(=O)NC(=S)NNC(=O)c1ccc(NC(=O)C2CCCCC2)cc1,6.26,–
Brc1cc2c(cc1C1Nc3ccccc3C3C=CCC31)OCO2 (centres undefined),5.27,–
COc1ccc(CCN2C(=O)c3[nH]nc(-c4ccccc4O)c3C2c2cccc(Cl)c2)cc1 (centres undefined),5.11,–
O=C(CC1SC(=Nc2ccccc2)N(CCc2c[nH]c3ccccc23)C1=O)Nc1ccccc1F (centres undefined),5.14,–
CC(C)(C)c1ccc(CN(Cc2ccco2)Cc2nnnn2C2CCCC2)cc1,5.33,–
CN(C)c1ccnc2c[cH-]cc12.[Fe].c1ccc(-[c-]2[c-](-c3ccccc3)[c-](-c3ccccc3)[c-](-c3ccccc3)[c-]2-c2ccccc2)cc1 (centres undefined),5.71 and 6.25,–
O=C(C[n+]1ccc2ccccc2c1)Nc1cc(C(F)(F)F)ccc1Cl,–,> 15 µM (inactive)
O=C1C(NS(=O)(=O)c2cccs2)=C(N2CCN(c3cccc(C(F)(F)F)c3)CC2)C(=O)c2ccccc21,5.05,–

SMILES,pEC50,EC50
Cc1nc2ccccc2c(=O)n1/N=C/c1cc(Br)cc(Br)c1O,5.52,–
CCOC(=O)c1ccc(NC(=O)CC2S/C(=N/N=C/c3c[nH]c4ccccc34)NC2=O)cc1 (centres undefined),5.11,–
Cc1ccc(NC(=S)c2nc3ccccc3[nH]2)c(C)c1,5.76,–
Nc1nonc1C(=O)NCCN=Cc1cc(Cc2ccccc2)cc(Br)c1O,5.30,–
Cc1ccccc1N1CCN(S(=O)(=O)c2nnc(NC(=O)c3ccco3)s2)CC1,5.35,–
CC(=O)OCC1=C(C(=O)O)N2C(=O)C(NC(=O)C(C)Cn3cc(Cl)cn3)C2SC1 (centres undefined),5.71,–
CC(C)(C)[C@H]1CCC(=O)N([C@H](CSc2ccccc2)Cc2ccccc2)CC1,5.45,–
O=C(c1cc(-c2ccc(Br)cc2)nc2ccccc12)N1CCN(c2ccccc2O)CC1,5.19,–
O=C(CNC(=O)c1ccco1)NCc1nc2ccccc2[nH]1,–,> 15 µM (inactive)
COc1ccc(NC(=O)C(OC(=O)c2cnc(C)cn2)c2ccccc2)cc1Cl (centres undefined),4.93,–
O=C(Nc1ccc2nc(-c3ccc4nc[nH]c4c3)[nH]c2c1)c1cccs1,4.81,–
CCCn1c(NC(=O)c2ccccc2)nc2ccccc21,5.80,–
Cc1ccc(NC(=O)c2cc(N3C(=O)C=CC3=O)ccc2N2CCOCC2)cc1Cl,4.94,–
Cc1cc(SCC(=O)N/N=C/c2ccc(O)cc2O)c(C)cc1Br,5.72,–
O=C(NC(=S)NNC(=O)c1cccs1)c1ccccc1,5.24,–
O=C(Nc1ncc(Cc2cccc(Cl)c2)s1)c1cccs1,5.41,–
Cc1ccc(/C=C/C(=O)c2ccc([N+](=O)[O-])o2)cc1,5.28,–
COc1ccccc1-c1cn[nH]c1-c1ccc(OCc2ccc(F)cc2)cc1O,4.97,–
Cc1ccc(C(C)C)c(OCc2ccc(C(=O)N/N=C/c3cccc(O)c3O)cc2)c1,5.25,–
FC(F)(F)c1cccc(NC(=S)Nc2ccc(Cl)cc2Cl)c1,5.55,–
COCc1cc(Sc2c(Cl)cccc2Cl)nc(-c2ccccc2)n1,4.98,–
CCOC(=O)c1sc2ncnc(NCC(c3cccs3)N(C)C)c2c1C (centres undefined),5.10,–

SMILES,pEC50,EC50
Cc1cccc(N2CCN(C(=O)c3ccc4nc(N5CCCCC5)sc4c3)CC2)c1C,5.12,–
COCCn1c(-c2cc(OC)c(OC)c(OC)c2)nc2oc3cc(OC)ccc3c(=O)c2c1=O,–,> 15 µM (inactive)
CC(C)(C)Nc1nc(-c2ccccn2)nc2ccccc12,6.67,–
OCCCCC#Cc1c(-c2ccsc2)sc2ccccc12,5.11,–
Cc1ccc(O)c(C2=NNC(c3ccc(Cl)cc3)C2)c1 (centres undefined),5.13,–
Cc1nn(CC(O)CN2c3ccccc3Sc3ccccc32)c(C)c1Br (centres undefined),5.67,–
CC[C@@H]1CC=C[C@H]2[C@H]1C(=O)N(Cc1ccccc1)[C@H]2c1ccc(OC)c(Cl)c1,5.38,–
Cc1nc(N2CCC(C)CC2)c2c(C)c(C(=O)Nc3ccccc3C(F)(F)F)sc2n1,5.22,–
Cc1cccc2[nH]c3c(N4CC=C(c5ccc(F)cc5)CC4)ncnc3c12,5.67,–
Oc1ccc(-c2nc3c4c(ncn3n2)-c2ccccc2CC42CCCC2)cc1,6.07,–
Cc1ccc(Oc2nc(-c3ccccn3)nc3ccccc23)cc1,> 7.22,–
COc1ccccc1-c1cc(=O)c2c(O)ccc([N+](=O)[O-])c2o1,5.59,–
Cc1ccccc1/C=C1\Sc2ccc(C(=O)N3CCN(c4ccccn4)CC3)cc2N(C)C1=O,5.19,–
CCOC(=O)C1=Nc2ccccc2C1=[N+]=[N-],6.61,–
CCOC(=O)c1cnn(-c2nc(-c3ccccc3)cs2)c1C(F)(F)F,5.28,–
CCc1nnc(NC(=O)c2ccc(S(=O)(=O)N3CCCc4ccccc43)cc2)o1,5.77,–
C=CC1=C(C(=O)O)N2C(=O)C(NC(=O)Cc3ccccc3)C2SC1 (centres undefined),6.89,–
Oc1[nH]c2ccccc2c1N=NC(=S)N1CCOCC1,6.56,–
COc1ccccc1CNC(=O)c1ccc(-c2ccccc2Cl)o1,5.00,–
CCC(=O)NC(c1ccc(C)cc1)c1cc([N+](=O)[O-])c2cccnc2c1O (centres undefined),5.88,–
O=C(NNc1c2ccccc2nc2ccccc12)c1ccc(O)cc1O,5.50,–
COc1cccc(C(=O)N2C(C(=O)O)CSC2c2ccccc2Cl)c1 (centres undefined),–,> 15 µM (inactive)

SMILES,pEC50,EC50
O=C(O)c1ccc2c3c(ncnc13)-c1ccccc1C2=O,5.28,–
Nc1nc(N)c(C=Nc2ccc(Br)cc2)c(Nc2ccc(Br)cc2)n1,5.77,–
CC(=O)c1c(C)[nH]c(C(=O)Nc2nc(-c3ccc(-c4ccccc4)cc3)cs2)c1C,5.38,–
CCCn1nnnc1NC(=O)c1ccc2ccccc2c1,6.00,–
Cc1cc(C)cc(C(=O)Nc2nc3ccccc3[nH]2)c1,5.22,–
CCN1CCN(C(CNS(=O)(=O)c2ccc(C)cc2)c2cccnc2)CC1 (centres undefined),–,> 15 µM (inactive)
N#Cc1ccc(-c2ccccc2)nc1SCC(=O)c1cc2ccccc2oc1=O,6.22,–
Cc1ccc(-c2csc(-c3c[nH]c4ccccc34)n2)c(C)c1,5.22,–
CCOC(=O)C1=C(C)N=c2s/c(=C/c3ccc(OCC(=O)O)c(OC)c3)c(=O)n2C1c1ccc(Cl)cc1 (centres undefined),5.30,–
CC1(C)CC(c2nc(-c3ccc(Cl)cc3)cs2)CCS1 (centres undefined),5.17,–
O=c1c2cc(-c3ccccc3)sc2nc2n1CCC2,5.12,–
Cc1ccn2c(Nc3ccccc3C)c(-c3ccccn3)nc2c1,5.66,–
COc1ccc(C2CC(=O)c3cnc(N4CCN(Cc5ccccc5)CC4)nc3C2)cc1 (centres undefined),4.86,–
CCC1C(=NO)C(CC)C(c2ccccc2)NC1c1ccccc1 (centres undefined),5.48,–
CC(C)(C)CC(=O)N1CCC(c2nc3c(nnn3Cc3c(F)cccc3Cl)c(=O)[nH]2)CC1,5.55,–
Cc1n[nH]c(C)c1CCCOc1ccccc1,5.29,–
CC(Oc1cccc(Cl)c1)C(=O)Nc1ccccc1N1CCCCC1 (centres undefined),5.52,–
COc1ccc(C(Nc2cc(C)ccn2)c2ccc3ccc(C)nc3c2O)cc1 (centres undefined),4.90,–
O=C(O)c1ccc(-c2nc(-c3ccc(Cl)c(Cl)c3)cs2)cc1,5.42,–
Cn1ncc(Cl)c1C(=O)N1CCC2(CC1)OCCO2,–,> 15 µM (inactive)
CCCCCCCN1N=C(C)C(C(=O)c2ccccc2)C1=O (centres undefined),5.88,–
